Laboratory results published in patent US20230157952A1, “METHOD FOR IMPROVING THE STABILITY OF A PHARMACEUTICAL COMPOSITION COMPRISING A HIGH PENETRATION DRUG, AND THE PHARMACEUTICAL COMPOSITION OBTAINED THEREFROM” (Techfields Inc., priority 2020, published 2023).

How the values were obtained:
[1] = Effect of concentration on the stability of the solution (purity over time); conditions: at 5° C. in 15% ethanol
[2] = Effect of solvent on the stability of the solution (purity at various pH values and temperature); type: physicochemical
[3] = Stability of the pure HPDs (dry solid) at 25° C./RH 60%; type: physicochemical; conditions: pure HPD, 25° C./RH 60%
[4] = Effect of temperature (and pH) on the stability of the solution (purity); type: physicochemical; conditions: 7% solution in water

## CCN(CC)CCOC(=O)c1ccccc1OC(C)=O.Cl [2-(diethylamino)ethyl acetylsalicylate•HCl]
[1]; 0.01 wt %
  Purity at day 0: 99.1%
  Purity at day 3: 93.1%
  Purity at day 7: 88.2%
  Purity at day 14: 81.4%
  Purity at day 21: 74.9%
  Purity at day 28: 68.3%
  Purity at day 60: 47.1%
  Purity at day 90: 30.1%
[1]; 0.1 wt %
  Purity at day 0: 99.2%
  Purity at day 3: 95.8%
  Purity at day 7: 93.1%
  Purity at day 14: 89.5%
  Purity at day 21: 86.6%
  Purity at day 28: 83.7%
  Purity at day 60: 71.8%
  Purity at day 90: 59.9%
[1]; 1 wt %
  Purity at day 0: 99.3%
  Purity at day 3: 97.6%
  Purity at day 7: 96.9%
  Purity at day 14: 95.2%
  Purity at day 21: 93.7%
  Purity at day 28: 91.5%
  Purity at day 60: 82.7%
  Purity at day 90: 74.1%
[1]; 3 wt %
  Purity at day 0: 99.5%
  Purity at day 14: 96.4%
  Purity at day 21: 94.5%
  Purity at day 28: 92.7%
  Purity at day 60: 86.1%
  Purity at day 90: 80.2%
[1]; 5 wt %
  Purity at day 0: 99.5%
  Purity at day 3: 99.3%
  Purity at day 7: 99.1%
  Purity at day 60: 96.7%
  Purity at day 90: 96.1%
[1]; 7 wt %
  Purity at day 0: 99.6%
  Purity at day 3: 99.4%
  Purity at day 7: 99.3%
  Purity at day 14: 99.1%
  Purity at day 90: 97.2%
[1]; 8 wt %
  Purity at day 0: 99.7%
  Purity at day 3: 99.5%
  Purity at day 7: 99.3%
  Purity at day 14: 99.3%
  Purity at day 90: 97.4%
[1]; 10 wt %
  Purity at day 0: 99.6%
  Purity at day 3: 99.7%
  Purity at day 7: 99.4%
  Purity at day 14: 99.1%
  Purity at day 90: 97.2%
[1]; 15 wt %
  Purity at day 0: 99.5%
  Purity at day 3: 99.5%
  Purity at day 7: 99.3%
  Purity at day 14: 99.2%
  Purity at day 90: 97.3%
[1]; 20 wt %
  Purity at day 0: 99.5%
  Purity at day 3: 99.6%
  Purity at day 7: 99.3%
  Purity at day 14: 99.2%
  Purity at day 90: 97.3%
[1]; 30 wt %
  Purity at day 0: 99.5%
  Purity at day 3: 99.5%
  Purity at day 7: 99.4%
  Purity at day 14: 99.4%
  Purity at day 90: 97.4%
[1]; 50 wt %
  Purity at day 0: 99.7%
  Purity at day 3: 99.6%
  Purity at day 7: 99.5%
  Purity at day 14: 99.3%
  Purity at day 21: 99.2%
  Purity at day 90: 97.4%
[1]
  Stability when the concentration is 0.1% or lower: not stable
[2]; 7% solution in water
  Stability of the solution at a temperature higher than 40° C. and a pH lower than 3 or greater than 6: not stable
[2]; 7% solution, 15% ethanol
  Effect of the solvent on the stability of the solution: did not affect the stability
[2]; 7% solution, 25% ethanol
  Effect of the solvent on the stability of the solution: did not affect the stability
[2]; 7% solution, 50% ethanol
  Effect of the solvent on the stability of the solution: did not affect the stability
[2]; 7% solution, tables 51-54 (water, 15%, 25%, 50% ethanol)
  Effect of the amount of ethanol on the stability of the solution: did not affect the stability

## CCN(CC)CCOC(=O)C(C)c1ccc(-c2ccccc2)c(F)c1.Cl (stereo not drawn) [B-1-1, 2-(diethylamino)ethyl 2-(2-fluoro-4-biphenyl)propionate•HCl salt]
[3]; 6 month
  Purity: 98.1 ± 0.1
[3]; 18 month
  Purity: 98.1 ± 0.1
[3]; 24 month
  Purity: 98.0 ± 0.1
[4]
  Stability of the solution at a temperature higher than 40° C. and a pH lower than 3 or greater than 6: not stable

## Br.CCN(CC)CCOC(=O)[C@H](C)c1ccc(CC(C)C)cc1 (racemic) [C-1-4, 2-(diethylamino)ethyl (R,S)-2-(p-isobutylphenyl)propionate•HBr salt]
[3]; 24 month
  Purity: 98.0 ± 0.5

## CCN(CC)CCOC(=O)[C@H](C)c1ccc(CC(C)C)cc1.Cl [C-1-3, 2-(diethylamino)ethyl (R)-2-(p-isobutylphenyl)propionate•HCl salt]
[3]; 6 month
  Purity: 98.1 ± 0.3
[3]; 9 month
  Purity: 98.0 ± 0.1
[3]; 12 month
  Purity: 98.0 ± 0.3
[3]; 18 month
  Purity: 97.9 ± 0.3
[3]; 24 month
  Purity: 97.8 ± 0.2
[4]
  Stability of the solution at a temperature higher than 40° C. and a pH lower than 3 or greater than 6: not stable

## CCN(CC)CCOC(=O)[C@H](C)c1ccc2cc(OC)ccc2c1.Cl [A-1-3, 2-(diethylamino)ethyl (R)-2-(6-methoxy-2-naphthyl) propionate•HCl salt]
[3]; 18 month
  Purity: 98.1 ± 0.2
[3]; 24 month
  Purity: 97.9 ± 0.2

## CCN(CC)CCOC(=O)[C@@H](C)c1ccc(CC(C)C)cc1.Cl [C-1-2, 2-(diethylamino)ethyl (S)-2-(p-isobutylphenyl)propionate•HCl salt]
[3]; 24 month
  Purity: 98.0 ± 0.5

## CCN(CC)CCOC(=O)[C@H](C)c1ccc(-c2ccccc2)c(F)c1.Cl [B-1-3, 2-(diethylamino)ethyl (R)-2-(2-fluoro-4-biphenyl)propionate•HCl salt]
[3]; 18 month
  Purity: 98.1 ± 0.2
[3]; 24 month
  Purity: 98.0 ± 0.1
